Laboratory results as given in patent US20260325561A1, “4'-SUBSTITUTED NUCLEOSIDES AND NUCLEOTIDES AS ANTIVIRAL AGENTS” (THE SCRIPPS RESEARCH INSTITUTE, priority 2023, published 2026).

Legend:
SARS-CoV-2 = assay: microbe, parasite or virus in culture; type: cell-based, SARS-CoV-2 strain USA-WA1/2020; settings: Severe acute respiratory syndrome coronavirus 2, HeLa-ACE2, 24 h, read-out: SARS-CoV-2 / HeLa-ACE2 EC50
CHIKV = assay: microbe, parasite or virus in culture; type: cell-based, CHIKV strain 181/25; settings: Chikungunya virus, HepG2, 24 h, read-out: CHIKV / HepG2 EC50
in vitro [1] = settings: human, hepg2 cells
DENV-2 = assay: microbe, parasite or virus in culture; type: cell-based, DENV-2 16681; settings: Dengue virus, DENV2, HepG2, 24 h, read-out: DENV-2 / HepG2 EC50
in vitro [2] = settings: human, hela-ace2 cells
RSV A2 = assay: microbe, parasite or virus in culture; type: cell-based; settings: human respiratory syncytial virus, HEp-2, 72 h, read-out: RSV A2 / Hep2 EC50
in vitro [3] = settings: human, hep2 cells
ZIKV = assay: microbe, parasite or virus in culture; type: cell-based, ZIKV MR766; settings: Zika virus, HepG2, 24 h, read-out: ZIKV / HepG2 EC50
YFV = assay: microbe, parasite or virus in culture; type: cell-based, YFV strain 17D; settings: Yellow fever virus, HepG2, 24 h, read-out: YFV / HepG2 EC50
HRV 14 = assay: microbe, parasite or virus in culture; type: cell-based, Human Rhinovirus 14 strain 1059; settings: Rhinovirus B, H1-HeLa, 48 h, read-out: HRV / H1 HeLa B 14 EC50
in vitro [4] = settings: human, h1 hela cells
Cytotoxicity, HFF = type: cell-based; settings: human, hff cells; read-out: HCMV/HFF CC50
HCMV = assay: HCMV/HFF antiviral assay; type: cell-based; settings: Human betaherpesvirus 5, HFF
HRV 16 = assay: microbe, parasite or virus in culture; type: cell-based, Human Rhinovirus 16 strain 11757; settings: Rhinovirus A, H1-HeLa, 48 h, read-out: HRV / H1 HeLa A16 EC50

SMILES	EC50 (SARS-CoV-2)	EC50 (CHIKV)	CC50 at 72 h (in vitro [1])	EC50 (DENV-2)	CC50 at 24 h (in vitro [2])	EC50 (RSV A2)	CC50 (in vitro [3])	EC50 (ZIKV)	EC50 (YFV)	EC50 (HRV 14)	CC50 (in vitro [4])	CC50 (Cytotoxicity, HFF)	EC50 (HCMV)	EC50 (HRV 16)
[N-]=[N+]=N[C@]1(CO)O[C@@H](n2ccc3c(N)ncnc32)[C@H](O)[C@@H]1O [Example 2, (2R,3S,4R,5R)-5-(4-amino-7H-pyrrolo[2,3-d]pyrimidin-7-yl)-2-azido-2-(hydroxymethyl)tetrahydrofuran-3,4-diol]	> 10 µM	> 10 µM	> 99 µM	> 10 µM	> 99 µM	–	–	–	–	–	–	–	–	–
OC[C@]1(F)O[C@@H](n2ccc3c(Cl)ncnc32)[C@H](O)[C@@H]1O [Example 5, (2R,3S,4R,5R)-5-(4-chloro-7H-pyrrolo[2,3-d]pyrimidin-7-yl)-2-fluoro-2-(hydroxymethyl)tetrahydrofuran-3,4-diol]	> 10 µM	–	> 99 µM	0.1 to 1 µM	> 99 µM	> 10 µM	> 99 µM	1 to 10 µM	1 to 10 µM	1 to 10 µM	> 99 µM	–	–	–
Nc1ncnc2c1ccn2[C@@H]1O[C@](F)(CO)[C@@H](O)[C@]1(F)Cl [Example 6, (2S,3R,4S,5R)-5-(4-amino-7H-pyrrolo[2,3-d]pyrimidin-7-yl)-4-chloro-2,4-difluoro-2-(hydroxymethyl)tetrahydrofuran-3-ol]	> 10 µM	–	> 99 µM	> 10 µM	> 99 µM	> 10 µM	> 99 µM	–	–	> 10 µM	> 99 µM	> 99 µM	> 10 µM	–
[N-]=[N+]=N[C@]1(CO)O[C@@H](n2ccc3c(N)ncnc32)[C@@](F)(Cl)[C@@H]1O [Example 7, (2R,3R,4S,5R)-5-(4-amino-7H-pyrrolo[2,3-d]pyrimidin-7-yl)-2-azido-4-chloro-4-fluoro-2-(hydroxymethyl)tetrahydrofuran-3-ol]	> 10 µM	–	> 99 µM	> 10 µM	> 99 µM	> 10 µM	> 99 µM	–	–	> 10 µM	> 99 µM	> 99 µM	> 10 µM	–
O=c1[nH]cnc2c1ccn2[C@@H]1O[C@](F)(CO)[C@@H](O)[C@H]1O [Example 16, 7-((2R,3R,4S,5S)-5-fluoro-3,4-dihydroxy-5-(hydroxymethyl)tetrahydrofuran-2-yl)-3,7-dihydro-4H-pyrrolo[2,3-d]pyrimidin-4-one]	> 10 µM	–	> 99 µM	> 10 µM	> 99 µM	> 10 µM	> 99 µM	–	–	> 10 µM	> 99 µM	> 99 µM	> 10 µM	> 10 µM
Nc1ncnc2c1c(CO)cn2[C@@H]1O[C@](F)(CO)[C@@H](O)[C@H]1O [Example 17, (2S,3S,4R,5R)-5-(4-amino-5-(hydroxymethyl)-7H-pyrrolo[2,3-d]pyrimidin-7-yl)-2-fluoro-2-(hydroxymethyl)tetrahydrofuran-3,4-diol]	> 10 µM	> 10 µM	10 to 99 µM	> 10 µM	> 99 µM	–	–	–	–	–	–	–	–	–
Nc1ncnn2c([C@@H]3O[C@](F)(CO)[C@@H](O)[C@H]3O)cnc12 [Example 19, (2S,3S,4R,5S)-5-(4-aminoimidazo[2,1-f][1,2,4]triazin-7-yl)-2-fluoro-2-(hydroxymethyl)tetrahydrofuran-3,4-diol]	1 to 10 µM	0.1 to 1 µM	< 1 µM	0.1 to 1 µM	1 to 10 µM	> 10 µM	1 to 10 µM	–	–	> 10 µM	1 to 10 µM	–	–	> 10 µM
Nc1ncnc2c1ccn2[C@@H]1O[C@@](CO)(CF)[C@@H](O)[C@H]1O [Example 20, (2R,3S,4R,5R)-5-(4-amino-7H-pyrrolo[2,3-d]pyrimidin-7-yl)-2-(fluoromethyl)-2-(hydroxymethyl)tetrahydrofuran-3,4-diol]	> 10 µM	> 10 µM	> 99 µM	> 10 µM	10 to 99 µM	> 10 µM	10 to 99 µM	–	–	> 10 µM	> 99 µM	> 99 µM	> 10 µM	> 10 µM
Nc1ncnc2c1ccn2[C@@H]1C[C@](F)(CO)[C@@H](O)[C@H]1O [Example 30, (1S,2S,3S,5R)-5-(4-amino-7H-pyrrolo[2,3-d]pyrimidin-7-yl)-3-fluoro-3-(hydroxymethyl)cyclopentane-1,2-diol]	> 10 µM	> 10 µM	10 to 99 µM	> 10 µM	10 to 99 µM	0.1 to 1 µM	1 to 10 µM	–	–	> 10 µM	10 to 99 µM	–	–	> 10 µM
Nc1nc(F)nc2c1ncn2[C@@H]1O[C@](F)(CO)[C@@H](O)[C@H]1O [Example 31, (2S,3S,4R,5R)-5-(6-amino-2-fluoro-9H-purin-9-yl)-2-fluoro-2-(hydroxymethyl)tetrahydrofuran-3,4-diol]	1 to 10 µM	0.1 to 1 µM	< 1 µM	0.1 to 1 µM	1 to 10 µM	> 10 µM	< 1 µM	–	–	> 10 µM	1 to 10 µM	–	–	> 10 µM
N#C[C@]1(CO)O[C@@H](n2ccc3c(N)ncnc32)[C@H](O)[C@@H]1O [Example 32, (3S,4R,5R)-5-(4-amino-7H-pyrrolo[2,3-d]pyrimidin-7-yl)-3,4-dihydroxy-2-(hydroxymethyl)tetrahydrofuran-2-carbonitrile]	> 10 µM	> 10 µM	> 99 µM	> 10 µM	> 99 µM	> 10 µM	> 99 µM	–	–	> 10 µM	> 99 µM	–	–	> 10 µM
CNc1ncnc2c1c(F)cn2[C@@H]1O[C@](F)(CO)[C@@H](O)[C@H]1O [Example 35, (2S,3S,4R,5R)-2-fluoro-5-(5-fluoro-4-(methylamino)-7H-pyrrolo[2,3-d]pyrimidin-7-yl)-2-(hydroxymethyl)tetrahydrofuran-3,4-diol]	> 10 µM	–	10 to 99 µM	> 10 µM	> 99 µM	> 10 µM	10 to 99 µM	> 10 µM	1 to 10 µM	> 10 µM	10 to 99 µM	–	–	–
OC[C@@]1(F)O[C@@H](n2cc(Cl)c3cncnc32)[C@H](O)[C@@H]1O [Example 36, (2S,3S,4R,5R)-5-(5-chloro-7H-pyrrolo[2,3-d]pyrimidin-7-yl)-2-fluoro-2-(hydroxymethyl)tetrahydrofuran-3,4-diol]	0.1 to 1 µM	–	< 1 µM	< 0.1 µM	1 to 10 µM	1 to 10 µM	10 to 99 µM	–	–	> 10 µM	10 to 99 µM	1 to 10 µM	0.1 to 1 µM	–
Nc1nc2c(ncn2[C@H]2C[C@H](O)[C@@](F)(CO)O2)c(=O)[nH]1 [Example 40, 2-amino-9-((2R,4S,5S)-5-fluoro-4-hydroxy-5-(hydroxymethyl)tetrahydrofuran-2-yl)-1,9-dihydro-6H-purin-6-one]	> 10 µM	–	> 99 µM	> 10 µM	> 99 µM	–	–	> 10 µM	> 10 µM	–	–	–	–	–
CCOc1nc(N)nc2c1ncn2[C@@H]1O[C@](F)(CO)[C@@H](O)C1(F)F [Example 60, (2S,3R,5R)-5-(2-amino-6-ethoxy-9H-purin-9-yl)-2,4,4-trifluoro-2-(hydroxymethyl)tetrahydrofuran-3-ol]	> 10 µM	–	> 99 µM	> 10 µM	> 99 µM	> 10 µM	> 99 µM	–	–	> 10 µM	> 99 µM	> 99 µM	> 10 µM	–
Nc1nc2c(ncn2[C@@H]2O[C@](F)(CO)[C@@H](O)C2(F)F)c(=O)[nH]1 [Example 71, 2-amino-9-((2R,4R,5S)-3,3,5-trifluoro-4-hydroxy-5-(hydroxymethyl)tetrahydrofuran-2-yl)-1,9-dihydro-6H-purin-6-one]	> 10 µM	–	> 99 µM	> 10 µM	> 99 µM	> 10 µM	> 99 µM	–	–	> 10 µM	> 99 µM	–	> 10 µM	–
